Our source for the IC50 values is patent publication US10479795B2 (Incyte Corporation, priority 2016, dated 2019).

The IC50 is the concentration that gives 50% inhibition.

Each structure is given as a SMILES string. Where a name gives a salt, the structure may show the parent alone. Read-outs that look alike come from different tables or passages of the source.

In test [1] the target is PI3Kγ (p110γ) Recombinant Human Protein (Homo sapiens (Human), UniProt P48736). As to the kind of experiment: PI3K-γ Scintillation Proximity Assay. The format is biochemical. Particulars: read-out: PI3Kγ IC50. The method, boiled down: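 Radiometric SPA readout: […] bound to WGA beads after overnight shaking, IC50 derived from % activity of DMSO control. Reaction used human p110γ, 2 μM ATP, 20 μM PIP2, pH 6.7 MOPS buffer with MgCl2, DTT, CHAPS, 2% DMSO, room temperature.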
Sequence of PI3Kγ (p110γ) Recombinant Human Protein (P48736 whole entry): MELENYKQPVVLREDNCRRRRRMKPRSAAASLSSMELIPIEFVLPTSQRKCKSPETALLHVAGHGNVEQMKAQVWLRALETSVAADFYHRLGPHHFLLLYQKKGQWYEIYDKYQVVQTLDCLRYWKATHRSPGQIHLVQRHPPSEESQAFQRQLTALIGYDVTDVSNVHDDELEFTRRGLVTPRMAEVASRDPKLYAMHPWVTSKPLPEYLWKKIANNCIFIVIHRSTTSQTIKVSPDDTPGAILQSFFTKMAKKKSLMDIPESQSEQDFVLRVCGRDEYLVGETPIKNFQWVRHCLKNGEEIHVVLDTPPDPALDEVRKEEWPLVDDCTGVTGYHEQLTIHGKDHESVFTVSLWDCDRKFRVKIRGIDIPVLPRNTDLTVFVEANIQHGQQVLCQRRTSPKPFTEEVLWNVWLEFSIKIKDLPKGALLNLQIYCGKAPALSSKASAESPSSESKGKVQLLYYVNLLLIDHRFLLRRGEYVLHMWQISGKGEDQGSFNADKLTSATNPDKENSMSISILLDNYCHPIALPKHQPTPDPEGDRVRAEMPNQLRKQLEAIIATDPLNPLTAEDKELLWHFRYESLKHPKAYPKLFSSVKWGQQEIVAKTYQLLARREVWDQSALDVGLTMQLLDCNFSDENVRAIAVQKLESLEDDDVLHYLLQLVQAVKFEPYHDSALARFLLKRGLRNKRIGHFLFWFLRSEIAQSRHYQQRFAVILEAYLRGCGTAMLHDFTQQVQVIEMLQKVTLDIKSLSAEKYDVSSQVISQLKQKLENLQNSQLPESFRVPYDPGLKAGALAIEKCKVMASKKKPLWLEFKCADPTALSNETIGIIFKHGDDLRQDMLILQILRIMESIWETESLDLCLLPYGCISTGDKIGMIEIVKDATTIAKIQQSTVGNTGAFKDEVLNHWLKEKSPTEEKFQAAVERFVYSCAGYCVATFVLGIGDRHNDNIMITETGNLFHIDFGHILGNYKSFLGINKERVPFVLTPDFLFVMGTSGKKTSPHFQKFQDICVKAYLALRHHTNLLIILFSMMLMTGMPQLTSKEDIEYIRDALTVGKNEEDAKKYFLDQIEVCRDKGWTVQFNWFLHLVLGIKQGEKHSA
A general note: In a scintillation proximity assay essentially only radioactivity close to the scintillant gives light.

In test [2] the test system is Phosphorylated Ribosomal Protein S6 (RPS6). As to the kind of experiment: THP-1 RPS6 ELISA Assay. The format is cell-based, Human. The note with it: THP-1 cells, read-out: PI3Kγ_THP1_RPS6_ELISA IC50. The method, boiled down: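 IC50 values come from a curve of percent inhibition against log compound concentration, using phospho-RPS6 ELISA (450 nm) on THP-1 lysates. Cells were serum-starved overnight, exposed to compound for 2 h at 37 °C, then challenged 15 min with 10 nM MCP-1.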
(In general: ELISA stands for enzyme-linked immunosorbent assay.)

The target of test [3] is PI3Kδ (p110δ/p85α) Recombinant Human Protein (Homo sapiens (Human), UniProt O00329). The test is described as follows: PI3Kδ Scintillation Proximity Assay. The format is biochemical. The gist of the method: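 Radiometric read-out: 33P-labelled PIP3 product captured on WGA SPA beads and counted, with IC50 fitted from percent activity relative to DMSO control. Enzyme (3.4 nM) was incubated 120 min at room temperature with 20 μM PIP2 and 2 μM ATP at pH 6.7, 2% DMSO.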
Sequence of PI3Kδ (p110δ/p85α) Recombinant Human Protein (O00329 whole entry): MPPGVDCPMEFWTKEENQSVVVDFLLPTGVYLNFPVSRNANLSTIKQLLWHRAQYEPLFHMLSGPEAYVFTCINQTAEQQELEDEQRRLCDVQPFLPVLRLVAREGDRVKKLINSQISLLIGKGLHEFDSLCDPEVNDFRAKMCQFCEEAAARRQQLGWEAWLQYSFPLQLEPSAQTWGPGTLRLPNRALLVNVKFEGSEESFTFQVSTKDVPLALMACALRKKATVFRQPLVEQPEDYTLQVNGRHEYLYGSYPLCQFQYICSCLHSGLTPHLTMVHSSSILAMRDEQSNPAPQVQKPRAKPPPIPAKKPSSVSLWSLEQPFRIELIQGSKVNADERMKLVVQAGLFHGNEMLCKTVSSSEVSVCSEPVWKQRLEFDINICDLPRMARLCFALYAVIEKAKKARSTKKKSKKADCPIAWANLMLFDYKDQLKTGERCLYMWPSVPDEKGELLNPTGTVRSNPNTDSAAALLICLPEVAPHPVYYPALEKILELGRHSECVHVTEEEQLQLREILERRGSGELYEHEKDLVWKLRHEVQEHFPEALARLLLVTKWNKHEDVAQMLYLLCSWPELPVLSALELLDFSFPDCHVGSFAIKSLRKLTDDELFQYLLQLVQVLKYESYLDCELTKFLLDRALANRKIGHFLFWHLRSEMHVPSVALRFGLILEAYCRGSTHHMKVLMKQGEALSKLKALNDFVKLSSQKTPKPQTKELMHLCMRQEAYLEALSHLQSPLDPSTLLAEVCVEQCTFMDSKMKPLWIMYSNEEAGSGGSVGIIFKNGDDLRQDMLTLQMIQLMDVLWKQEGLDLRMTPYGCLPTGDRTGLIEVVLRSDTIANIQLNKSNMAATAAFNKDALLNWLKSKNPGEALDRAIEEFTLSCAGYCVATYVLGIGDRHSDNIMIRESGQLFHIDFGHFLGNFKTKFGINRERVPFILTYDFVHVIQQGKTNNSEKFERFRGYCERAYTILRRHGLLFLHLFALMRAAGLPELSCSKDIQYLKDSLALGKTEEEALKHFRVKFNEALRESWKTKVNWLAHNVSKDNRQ
Sequence of PI3Kδ (p110δ/p85α) Recombinant Human Protein (P27986 whole entry partner): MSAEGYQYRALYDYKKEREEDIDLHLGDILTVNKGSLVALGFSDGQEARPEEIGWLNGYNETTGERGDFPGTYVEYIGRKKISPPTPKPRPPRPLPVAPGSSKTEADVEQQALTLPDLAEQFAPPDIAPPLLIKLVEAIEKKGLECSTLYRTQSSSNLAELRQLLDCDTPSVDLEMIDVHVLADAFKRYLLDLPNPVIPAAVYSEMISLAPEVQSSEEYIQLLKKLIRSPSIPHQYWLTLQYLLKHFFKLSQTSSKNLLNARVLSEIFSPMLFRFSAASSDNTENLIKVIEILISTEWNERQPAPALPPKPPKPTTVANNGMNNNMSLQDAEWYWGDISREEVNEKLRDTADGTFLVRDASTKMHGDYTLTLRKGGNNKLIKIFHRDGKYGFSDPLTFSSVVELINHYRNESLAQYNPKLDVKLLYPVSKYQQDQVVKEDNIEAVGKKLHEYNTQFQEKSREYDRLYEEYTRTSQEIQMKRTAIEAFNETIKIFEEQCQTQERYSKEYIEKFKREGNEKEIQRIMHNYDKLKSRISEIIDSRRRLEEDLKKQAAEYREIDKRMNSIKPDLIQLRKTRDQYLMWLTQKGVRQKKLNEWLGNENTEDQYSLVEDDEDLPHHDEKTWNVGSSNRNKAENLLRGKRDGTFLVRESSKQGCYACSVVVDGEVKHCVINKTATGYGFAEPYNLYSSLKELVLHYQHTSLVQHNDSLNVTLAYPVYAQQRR

Take `Cc1ccc(S(=O)(=O)NCC2CCN(C(=O)C3CC3)CC2)cc1-c1cnc2c(N)nccn12` [Example 136, 3-(8-aminoimidazo[1,2-a]pyrazin-3-yl)-N-((1-(cyclopropanecarbonyl)piperidin-4-yl)methyl)-4-methylbenzenesulfonamide]: the half-maximal inhibitory concentration (IC50) in test [1] was 100 to 500 nM; in test [2] (Homo sapiens) it was greater than 1000 nM; in test [3], greater than 2000 nM.
As for `Cc1ccc(S(=O)(=O)NC2CCCCC2O)cc1-c1cnc2c(N)ncnn12` (stereo not drawn) [Example 137, 3-(4-aminoimidazo[2,1-f][1,2,4]triazin-7-yl)-N-(2-hydroxycyclohexyl)-4-methylbenzenesulfonamide], the 50% inhibitory concentration (IC50) in test [1] was less than 100 nM; in test [2] (Homo sapiens) it was greater than 1000 nM; in test [3] it was 500 to 2000 nM.
In the same order, the values of `Cc1ccc(S(=O)(=O)NCCN2CCCC2=O)cc1-c1cnc2c(N)ncnn12` [Example 138, 3-(4-aminoimidazo[2,1-f][1,2,4]triazin-7-yl)-4-methyl-N-(2-(2-oxopyrrolidin-1-yl)ethyl)benzenesulfonamide] are less than 100 nM, greater than 1000 nM and 500 to 2000 nM.
In the same order, the values of `Cc1ccc(S(N)(=O)=O)cc1-c1cnc2c(N)ncnn12` [Example 139, 3-(4-aminoimidazo[2,1-f][1,2,4]triazin-7-yl)-4-methylbenzenesulfonamide] are less than 100 nM, greater than 1000 nM and 500 to 2000 nM.
Regarding `Cc1ccc(S(=O)(=O)N[C@H]2C[C@](O)(C(F)(F)F)C2)cc1-c1cnc2c(N)ncnn12` [Example 140, 3-(4-aminoimidazo[2,1-f][1,2,4]triazin-7-yl)-N-((1S,3S)-3-hydroxy-3-(trifluoromethyl)cyclobutyl)-4-methylbenzenesulfonamide], the IC50 in test [1] was less than 100 nM; in test [2], 100 to 500 nM; in test [3], 500 to 2000 nM.
As for `Cc1ccc(S(=O)(=O)N2CC3(C2)CC(O)(C(F)(F)F)C3)cc1-c1cnc2c(N)ncnn12` [Example 141, 2-((3-(4-aminoimidazo[2,1-f][1,2,4]triazin-7-yl)-4-methylphenyl)sulfonyl)-6-(trifluoromethyl)-2-azaspiro[3.3]heptan-6-ol], the IC50 in test [1] is less than 100 nM; in test [2] (Homo sapiens) it was 100 to 500 nM; in test [3], 100 to 500 nM.
`Cc1ccc(S(=O)(=O)N2CCC3(CCOCC3)C2)cc1-c1cnc2c(N)ncnn12` [Example 142, 7-(5-((8-oxa-2-azaspiro[4.5]decan-2-yl)sulfonyl)-2-methylphenyl)imidazo[2,1-f][1,2,4]triazin-4-amine]: the IC50 in test [1] was less than 100 nM; in test [2] (Homo sapiens), 100 to 500 nM; in test [3] it was 500 to 2000 nM.
In the case of `Cc1ccc(S(=O)(=O)N2CC3(COC3)C2)cc1-c1cnc2c(N)ncnn12` [Example 143, 7-(5-((2-oxa-6-azaspiro[3.3]heptan-6-yl)sulfonyl)-2-methylphenyl)imidazo[2,1-f][1,2,4]triazin-4-amine], the concentration for half-maximal inhibition (IC50) in test [1] was less than 100 nM; in test [2] (Homo sapiens), greater than 1000 nM; in test [3] it was 100 to 500 nM.
For the compound `Cc1ccc(S(=O)(=O)N2CC(O)(C3CC3)C2)cc1-c1cnc2c(N)ncnn12` [Example 144, 1-((3-(4-aminoimidazo[2,1-f][1,2,4]triazin-7-yl)-4-methylphenyl)sulfonyl)-3-cyclopropylazetidin-3-ol, TFA], the IC50 is less than 100 nM in test [1], 500 to 1000 nM in test [2] and 100 to 500 nM in test [3].
In the case of `Cc1ccc(S(=O)(=O)N2CC3(CC(O)C3)C2)cc1-c1cnc2c(N)ncnn12` [Example 145, 2-((3-(4-aminoimidazo[2,1-f][1,2,4]triazin-7-yl)-4-methylphenyl)sulfonyl)-2-azaspiro[3.3]heptan-6-ol, TFA], the IC50 in test [1] is less than 100 nM; in test [2] it was 100 to 500 nM; in test [3], 100 to 500 nM.
With `Cc1ccc(S(=O)(=O)N2C(C)COCC2C)cc1-c1cnc2c(N)ncnn12` (stereo not drawn) [Example 155, 7-(5-((3,5-dimethylmorpholino)sulfonyl)-2-methylphenyl)imidazo[2,1-f][1,2,4]triazin-4-amine], the IC50 is less than 100 nM in test [1], 100 to 500 nM in test [2] (Homo sapiens) and 100 to 500 nM in test [3].
Regarding `Cc1ccc(S(=O)(=O)N2CCOCC2(C)C)cc1-c1cnc2c(N)ncnn12` [Example 156, 7-(5-((3,3-dimethylmorpholino)sulfonyl)-2-methylphenyl)imidazo[2,1-f][1,2,4]triazin-4-amine], the concentration for half-maximal inhibition (IC50) in test [1] is less than 100 nM; in test [2] (Homo sapiens), 500 to 1000 nM; in test [3], 500 to 2000 nM.
Turning to `Cc1ccc(S(=O)(=O)N2C(C)CCCC2CO)cc1-c1cnc2c(N)ncnn12` (stereo not drawn) [Example 157, (1-((3-(4-aminoimidazo[2,1-f][1,2,4]triazin-7-yl)-4-methylphenyl)sulfonyl)-6-methylpiperidin-2-yl)methanol], the IC50 is less than 100 nM in test [1], 500 to 1000 nM in test [2] (Homo sapiens) and 500 to 2000 nM in test [3].
In the same order, the values of `Cc1ccc(S(=O)(=O)N(CCC#N)C2CCCC2)cc1-c1cnc2c(N)ncnn12` [Example 165, 3-(4-aminoimidazo[2,1-f][1,2,4]triazin-7-yl)-N-(2-cyanoethyl)-N-cyclopentyl-4-methylbenzenesulfonamide] are less than 100 nM, 500 to 1000 nM and 100 to 500 nM.
For the compound `Cc1ccc(S(=O)(=O)N2CCNC[C@@H]2CO)cc1-c1cnc2c(N)ncnn12` [Example 166, (R)-(1-((3-(4-aminoimidazo[2,1-f][1,2,4]triazin-7-yl)-4-methylphenyl)sulfonyl)piperazin-2-yl)methanol], the IC50 was less than 100 nM in test [1], 100 to 500 nM in test [2] (Homo sapiens) and 100 to 500 nM in test [3].
As to `Cc1ccc(S(=O)(=O)N(CCC#N)CCCO)cc1-c1cnc2c(N)ncnn12` [Example 175, 3-(4-aminoimidazo[2,1-f][1,2,4]triazin-7-yl)-N-(2-cyanoethyl)-N-(3-hydroxypropyl)-4-methylbenzenesulfonamide], the IC50 in test [1] is less than 100 nM; in test [2] (Homo sapiens), 100 to 500 nM; in test [3], 100 to 500 nM.
Turning to `Cc1ccc(S(=O)(=O)NC23CCC(CC2)C3)cc1-c1cnc2c(N)ncnn12` [Example 180, 3-(4-aminoimidazo[1,2-f][1,2,4]triazin-7-yl)-N-(bicyclo[2.2.1]heptan-1-yl)-4-methylbenzenesulfonamide trifluoroacetate salt], the results for the IC50 in test [1], in test [2] and in test [3] were less than 100 nM, 100 to 500 nM and 100 to 500 nM, respectively.
Consider `Cc1ccc(S(=O)(=O)NC23CCC(CC2)CC3)cc1-c1cnc2c(N)ncnn12` [Example 181, 3-(4-aminoimidazo[1,2-f][1,2,4]triazin-7-yl)-N-(bicyclo[2.2.2]octan-1-yl)-4-methylbenzenesulfonamide trifluoroacetate salt], for which the 50% inhibitory concentration (IC50) was less than 100 nM in test [1], 100 to 500 nM in test [2] and less than 100 nM in test [3].
On to `Cc1ccc(S(=O)(=O)NC23CCN(CC2)CC3)cc1-c1cnc2c(N)ncnn12` [Example 182, 3-(4-aminoimidazo[1,2-f][1,2,4]triazin-7-yl)-4-methyl-N-(quinuclidin-4-yl)benzenesulfonamide trifluoroacetate salt], for which the concentration for half-maximal inhibition (IC50) is less than 100 nM in test [1], 500 to 1000 nM in test [2] and 500 to 2000 nM in test [3].
For the compound `Cc1ccc(S(=O)(=O)N[C@H]2CC[C@H](CC#N)OC2)cc1-c1cnc2c(N)ncnn12` [Example 183, 3-(4-aminoimidazo[2,1-f][1,2,4]triazin-7-yl)-N-((3S,6R)-6-(cyanomethyl)tetrahydro-2H-pyran-3-yl)-4-methylbenzenesulfonamide], the IC50 in test [1] was less than 100 nM; in test [2] (Homo sapiens) it was less than 100 nM; in test [3], 100 to 500 nM.
`Cc1ccc(S(=O)(=O)N[C@H]2CC[C@H](CC#N)CC2)cc1-c1cnc2c(N)ncnn12` [Example 184, 3-(4-aminoimidazo[2,1-f][1,2,4]triazin-7-yl)-N-(trans-4-(cyanomethyl)cyclohexyl)-4-methylbenzenesulfonamide trifluoroacetate]: the IC50 in test [1], in test [2] (Homo sapiens) and in test [3] was less than 100 nM each time.
With `Cc1ccc(S(=O)(=O)NC23CCC(O)(CC2)CC3)cc1-c1cnc2c(N)ncnn12` [Example 185, 3-(4-aminoimidazo[2,1-f][1,2,4]triazin-7-yl)-N-(4-hydroxybicyclo[2.2.2]octan-1-yl)-4-methylbenzenesulfonamide], the concentration for half-maximal inhibition (IC50) was less than 100 nM in test [1], 100 to 500 nM in test [2] (Homo sapiens) and 100 to 500 nM in test [3].
As for `Cc1ccc(S(=O)(=O)NC23CCC(CO)(CC2)CC3)cc1-c1cnc2c(N)ncnn12` [Example 186, 3-(4-aminoimidazo[2,1-f][1,2,4]triazin-7-yl)-N-(4-(hydroxymethyl)bicyclo[2.2.2]octan-1-yl)-4-methylbenzenesulfonamide], the half-maximal inhibitory concentration (IC50) was less than 100 nM in test [1], 100 to 500 nM in test [2] (Homo sapiens) and 100 to 500 nM in test [3].
As for `Cc1ccc(S(=O)(=O)NC23CCC(C#N)(CC2)CC3)cc1-c1cnc2c(N)ncnn12` [Example 187, 3-(4-aminoimidazo[2,1-f][1,2,4]triazin-7-yl)-N-(4-cyanobicyclo[2.2.2]octan-1-yl)-4-methylbenzenesulfonamide], the IC50 was less than 100 nM in test [1], 100 to 500 nM in test [2] (Homo sapiens) and 100 to 500 nM in test [3].
